According to PubChem BioAssay AID330 (DTP/NCI, 2004):
Values joined by “and” are separate entries in the source; they are usually repeats but may differ in a detail not shown here. Identical values can stand only once. Inconclusive results and toxic doses are left out.

System: P388 leukemia ip, CD2F1 mice, survival T/C
Assay: NCI In Vivo Anticancer Drug Screen. Data for tumor model P388 Leukemia (intraperitoneal) in CD2F1 (CDF1) mice
Conditions: endpoint: median survival time, higher = longer survival
Outline: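 Mice carrying the transplanted tumor received test compound or vehicle. Survival was recorded in each group, and the value is the treated-group measurement divided by that of the vehicle-treated control group.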

[1] = dose: 100.0 mg/kg/injection, schedule: Q01DX009 (ip), vehicle: saline with Tween-80
[2] = dose: 200.0 mg/kg/injection, schedule: Q01DX009 (ip), vehicle: saline with Tween-80
[3] = dose: 50.0 mg/kg/injection, schedule: Q01DX009 (ip), vehicle: saline
[4] = dose: 100.0 mg/kg/injection, schedule: Q01DX009 (ip), vehicle: saline
[5] = dose: 200.0 mg/kg/injection, schedule: Q01DX009 (ip), vehicle: saline
[6] = dose: 50.0 mg/kg/injection, schedule: Q01DX009 (ip), vehicle: Klucel (hydroxypropylcellulose) (HPC)
[7] = dose: 100.0 mg/kg/injection, schedule: Q01DX009 (ip), vehicle: Klucel (hydroxypropylcellulose) (HPC)
[8] = dose: 200.0 mg/kg/injection, schedule: Q01DX009 (ip), vehicle: Klucel (hydroxypropylcellulose) (HPC)
[9] = dose: 25.0 mg/kg/injection, schedule: Q01DX009 (ip), vehicle: Klucel (hydroxypropylcellulose) (HPC)
[10] = dose: 6.25 mg/kg/injection, schedule: Q01DX009 (ip), vehicle: saline
[11] = dose: 12.5 mg/kg/injection, schedule: Q01DX009 (ip), vehicle: saline

CN(/N=C/c1ccccc1)C(N)=Nc1ccccc1
T/C (dose: 50.0 mg/kg/injection, schedule: Q01DX005 (ip), vehicle: saline with Tween-80): 119 % of control | T/C (dose: 100.0 mg/kg/injection, schedule: Q01DX005 (ip), vehicle: saline with Tween-80): 107 % of control | T/C (dose: 200.0 mg/kg/injection, schedule: Q01DX005 (ip), vehicle: saline with Tween-80): 104 % of control

N#CCOc1ccccc1
T/C (dose: 3.12 mg/kg/injection, schedule: Q01DX009 (ip), vehicle: other): 101 % of control | T/C (dose: 6.25 mg/kg/injection, schedule: Q01DX009 (ip), vehicle: other): 102 % of control | T/C (dose: 12.5 mg/kg/injection, schedule: Q01DX009 (ip), vehicle: other): 99 % of control | T/C (dose: 25.0 mg/kg/injection, schedule: Q01DX009 (ip), vehicle: other): 106 % of control

CC(=O)Oc1ccc[nH]c1=O
T/C [1]: 104 % of control | T/C (dose: 100.0 mg/kg/injection, schedule: Q04DX003 (ip), vehicle: saline with Tween-80): 113 % of control | T/C [2]: 118 % of control | T/C (dose: 200.0 mg/kg/injection, schedule: Q04DX003 (ip), vehicle: saline with Tween-80): 104 % of control | T/C (dose: 300.0 mg/kg/injection, schedule: Q01DX009 (ip), vehicle: saline): 155 % of control | T/C (dose: 400.0 mg/kg/injection, schedule: Q01DX009 (ip), vehicle: saline): 158 % of control | T/C (dose: 400.0 mg/kg/injection, schedule: Q04DX003 (ip), vehicle: saline with Tween-80): 109 % of control | T/C (dose: 500.0 mg/kg/injection, schedule: Q01DX009 (ip), vehicle: saline): 87 % of control and 91 % of control | T/C (dose: 600.0 mg/kg/injection, schedule: Q01DX009 (ip), vehicle: saline sonified): 115 % of control | T/C (dose: 600.0 mg/kg/injection, schedule: Q01DX009 (ip), vehicle: saline with Tween-80): 172 % of control | T/C (dose: 600.0 mg/kg/injection, schedule: Q01DX009 (ip), vehicle: saline): 110 % of control

CCOC(=O)c1c(N=P(c2ccccc2)(c2ccccc2)c2ccccc2)n(C)c(=O)n(C)c1=O
T/C (dose: 60.0 mg/kg/injection, schedule: Q01DX005 (ip), vehicle: Klucel (hydroxypropylcellulose) (HPC)): 105 % of control | T/C (dose: 120.0 mg/kg/injection, schedule: Q01DX005 (ip), vehicle: Klucel (hydroxypropylcellulose) (HPC)): 99 % of control | T/C (dose: 240.0 mg/kg/injection, schedule: Q01DX005 (ip), vehicle: Klucel (hydroxypropylcellulose) (HPC)): 98 % of control

CCCc1[nH]n(-c2ccccc2)c(=O)c1N=Nc1ccc(Cl)cc1
T/C [3]: 96 % of control | T/C [4]: 100 % of control | T/C [5]: 101 % of control

NC(=O)c1ccc(NO)cc1
T/C [3]: 106 % of control | T/C [4]: 98 % of control | T/C [5]: 94 % of control

O=[N+]([O-])c1ccc(S(=O)(=O)c2ccc(Nc3ccnc4cc(Cl)ccc34)cc2)cc1
T/C (dose: 50.0 mg/kg/injection, schedule: Q01DX005 (ip), vehicle: Klucel (hydroxypropylcellulose) (HPC)): 98 % of control | T/C (dose: 100.0 mg/kg/injection, schedule: Q01DX005 (ip), vehicle: Klucel (hydroxypropylcellulose) (HPC)): 91 % of control | T/C (dose: 200.0 mg/kg/injection, schedule: Q01DX005 (ip), vehicle: Klucel (hydroxypropylcellulose) (HPC)): 90 % of control

CC(C)=NNC1=NC(C)(C)P(=O)(NCC(=O)O)S1 (centres undefined)
T/C (dose: 60.0 mg/kg/injection, schedule: Q01DX005 (ip), vehicle: saline): 103 % of control | T/C (dose: 120.0 mg/kg/injection, schedule: Q01DX005 (ip), vehicle: saline): 103 % of control | T/C (dose: 240.0 mg/kg/injection, schedule: Q01DX005 (ip), vehicle: saline): 100 % of control

CSc1nc2ccc(NC(=O)/C=N/O)cc2s1
T/C [6]: 91 % of control | T/C [7]: 92 % of control | T/C [8]: 87 % of control and 90 % of control

Cc1cn(O)ccc1=S
T/C (dose: 100.0 mg/kg/injection, schedule: Q04DX002 (ip), vehicle: Klucel (hydroxypropylcellulose) (HPC)): 101 % of control | T/C (dose: 200.0 mg/kg/injection, schedule: Q04DX002 (ip), vehicle: Klucel (hydroxypropylcellulose) (HPC)): 99 % of control | T/C (dose: 400.0 mg/kg/injection, schedule: Q04DX002 (ip), vehicle: Klucel (hydroxypropylcellulose) (HPC)): 101 % of control

CCN(CC)c1nc(/C=C\c2ccc(N(C)C)cc2)c2nccnc2n1
T/C [6]: 95 % of control | T/C [7]: 90 % of control | T/C [8]: 94 % of control

Nc1c(Cl)c(Cl)nc(C(=O)O)c1Cl
T/C [9]: 101 % of control | T/C (dose: 25.0 mg/kg/injection, schedule: Q01DX009 (ip), vehicle: saline with Tween-80): 102 % of control | T/C [6]: 86 % of control | T/C (dose: 50.0 mg/kg/injection, schedule: Q01DX009 (ip), vehicle: saline with Tween-80): 100 % of control | T/C [7]: 93 % of control | T/C [1]: 100 % of control | T/C [8]: 93 % of control | T/C [2]: 111 % of control | T/C (dose: 400.0 mg/kg/injection, schedule: Q01DX009 (ip), vehicle: saline with Tween-80): 115 % of control

COc1cc(NCCCCCCCNC(C)C)c2nccc(C)c2c1
T/C (dose: 3.13 mg/kg/injection, schedule: Q01DX009 (ip), vehicle: saline): 105 % of control | T/C [10]: 102 % of control | T/C [11]: 99 % of control

NNc1cc2c(nn1)CCN(C(=O)c1ccccc1)C2
T/C [3]: 98 % of control | T/C [4]: 108 % of control

CCCCCCCCCCCCCC[N+]1(CC)CCOCC1
T/C (dose: 3.12 mg/kg/injection, schedule: Q01DX009 (ip), vehicle: saline): 119 % of control | T/C [10]: 115 % of control | T/C [11]: 123 % of control

O=C1NC(=O)C(F)(F)C(O)N1 (centres undefined)
T/C (dose: 75.0 mg/kg/injection, schedule: Q04DX002 (ip), vehicle: saline): 109 % of control | T/C (dose: 100.0 mg/kg/injection, schedule: Q01DX009 (ip), vehicle: saline sonified): 154 % of control | T/C (dose: 150.0 mg/kg/injection, schedule: Q01DX009 (ip), vehicle: saline sonified): 172 % of control | T/C (dose: 150.0 mg/kg/injection, schedule: Q04DX002 (ip), vehicle: saline): 109 % of control | T/C (dose: 220.0 mg/kg/injection, schedule: Q01DX009 (ip), vehicle: saline sonified): 177 % of control | T/C (dose: 300.0 mg/kg/injection, schedule: Q04DX002 (ip), vehicle: saline): 116 % of control | T/C (dose: 600.0 mg/kg/injection, schedule: Q04DX002 (ip), vehicle: saline): 106 % of control | T/C (dose: 1200.0 mg/kg/injection, schedule: Q04DX002 (ip), vehicle: saline): 104 % of control

CCOC1(OCC)Cc2nc3ccccc3cc21
T/C (dose: 50.0 mg/kg/injection, schedule: Q01DX005 (ip), vehicle: saline + Tween-80 + alcohol): 106 % of control | T/C (dose: 100.0 mg/kg/injection, schedule: Q01DX005 (ip), vehicle: saline + Tween-80 + alcohol): 109 % of control | T/C (dose: 200.0 mg/kg/injection, schedule: Q01DX005 (ip), vehicle: saline + Tween-80 + alcohol): 106 % of control

COc1cc(C=Nc2cccc(Cl)c2)ccc1N(CCCl)CCCl
T/C (dose: 25.0 mg/kg/injection, schedule: Q04DX003 (ip), vehicle: saline with Tween-80): 172 % of control | T/C (dose: 50.0 mg/kg/injection, schedule: Q04DX003 (ip), vehicle: saline with Tween-80): 181 % of control

CC(C)c1cc(C(=O)[O-])c(O)c(C(C)C)c1.CC(C)c1cc(C(=O)[O-])c(O)c(C(C)C)c1.CC1OC(O[C@H]2/C=C/C=C/C=C/C=C/C=C/C=C/C=C/C(C)[C@@H](O)C(C)C(C)OC(=O)C[C@H](O)C[C@H](O)CC[C@@H](O)[C@H](O)C[C@H](O)C[C@]3(O)CC(O)[C@@H](C(=O)O)[C@H](C2)O3)C(O)C(N)C1O.[Cu+2] (some centres undefined)
T/C (dose: 12.5 mg/kg/injection, schedule: Q04DX002 (ip), vehicle: saline with Tween-80): 103 % of control | T/C (dose: 25.0 mg/kg/injection, schedule: Q04DX002 (ip), vehicle: saline with Tween-80): 97 % of control | T/C (dose: 50.0 mg/kg/injection, schedule: Q04DX002 (ip), vehicle: saline with Tween-80): 91 % of control

S=c1[nH]ccn1-c1ccccc1
T/C [9]: 99 % of control | T/C [6]: 104 % of control | T/C [7]: 109 % of control | T/C [8]: 95 % of control

CC(=O)Nc1ccc(N)cc1C
T/C (dose: 100.0 mg/kg/injection, schedule: Q04DX002 (ip), vehicle: saline): 96 % of control | T/C (dose: 200.0 mg/kg/injection, schedule: Q04DX002 (ip), vehicle: saline): 97 % of control | T/C (dose: 400.0 mg/kg/injection, schedule: Q04DX002 (ip), vehicle: saline): 97 % of control

C[C@@H]1CC2=CC(=O)CC[C@]2(C)[C@H]2CC[C@]3(C)[C@@H](O)CC[C@H]3[C@H]12
T/C [1]: 90 % of control | T/C [2]: 90 % of control
